In BindingDB's records for doi:10.1016/s0960-894x(00)00462-5 (Smithkline Beecham Pharmaceuticals, 2001) one finds IC50 data, which are given here for four compounds.

Experiment [1] deals with Capsid scaffolding protein / assemblin protease (Human cytomegalovirus) (UniProt P16753). The experiment is described as follows: In vitro inhibitory activity against human cytomegalovirus (hCMV) protease in the absence of zinc.
For experiment [2] the target is unchanged. The experiment is described as follows: In vitro inhibitory activity against human cytomegalovirus (hCMV) protease in the presence of zinc.
The target is the same in experiment [3]. The experiment is described as above. The source holds these as a separate data set.

Capsid scaffolding protein / assemblin protease (Human cytomegalovirus), sequence (P16753 whole entry, looked up): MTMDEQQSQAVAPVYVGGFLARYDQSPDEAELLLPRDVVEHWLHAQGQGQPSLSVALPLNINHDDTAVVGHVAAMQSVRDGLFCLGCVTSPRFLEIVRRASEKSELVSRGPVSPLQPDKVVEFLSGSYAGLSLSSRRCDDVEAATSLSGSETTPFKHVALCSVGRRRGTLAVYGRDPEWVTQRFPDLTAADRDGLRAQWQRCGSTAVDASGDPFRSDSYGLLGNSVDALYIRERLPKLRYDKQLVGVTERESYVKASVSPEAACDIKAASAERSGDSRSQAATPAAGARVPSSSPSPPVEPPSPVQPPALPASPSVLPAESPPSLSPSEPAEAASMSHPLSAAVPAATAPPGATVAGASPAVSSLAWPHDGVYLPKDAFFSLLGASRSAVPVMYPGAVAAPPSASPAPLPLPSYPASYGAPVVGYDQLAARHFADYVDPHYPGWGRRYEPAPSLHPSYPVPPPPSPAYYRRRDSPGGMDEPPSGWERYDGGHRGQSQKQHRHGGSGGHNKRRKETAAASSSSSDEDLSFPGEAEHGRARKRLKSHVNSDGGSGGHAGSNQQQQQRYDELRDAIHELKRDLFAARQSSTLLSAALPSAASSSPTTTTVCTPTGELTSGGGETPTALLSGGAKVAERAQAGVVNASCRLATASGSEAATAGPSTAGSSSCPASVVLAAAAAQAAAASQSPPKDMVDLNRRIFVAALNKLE

Broadly, the IC50 is the point on the concentration scale where inhibition reaches its midpoint. With `CCCCCCCCSc1ncc(Cc2cn(Cc3ccc(C(=O)OC)cc3)cn2)[nH]1` [4-[4-(2-Octylsulfanyl-1H-imidazol-4-ylmethyl)-imidazol-1-ylmethyl]-benzoic acid methyl ester], the half-maximal inhibitory concentration (IC50) in experiment [1] is above 150 µM; in experiment [2] it was 7 µM.
Regarding `CCCCCCCCSc1ncc(Cc2cn(Cc3ccc(C(=O)NCC4CC4)cc3)cn2)[nH]1` [N-Cyclopropylmethyl-4-[4-(2-octylsulfanyl-1H-imidazol-4-ylmethyl)-imidazol-1-ylmethyl]-benzamide], the results for the 50% inhibitory concentration (IC50) in experiment [1] and in experiment [2] were above 150 µM and 15 µM, respectively.
As to `CCCCCCCCSc1ncc(Cc2cn(CC(=O)NC(CC(=O)OCc3ccccc3)C(=O)OCc3ccccc3)cn2)[nH]1` (stereo not drawn) [2-{2-[4-(2-Octylsulfanyl-1H-imidazol-4-ylmethyl)-imidazol-1-yl]-acetylamino}-succinic acid dibenzyl ester], the figures for the concentration for half-maximal inhibition (IC50) in experiment [1] and in experiment [2] were 15 µM and 5 µM, respectively.
Take `CCCCCCCCSc1ncc(Cc2cn(CC(=O)NC(Cc3ccccc3)C(=O)OCc3ccccc3)cn2)[nH]1` (stereo not drawn) [2-{2-[4-(2-Octylsulfanyl-1H-imidazol-4-ylmethyl)-imidazol-1-yl]-acetylamino}-3-phenyl-propionic acid benzyl ester]: the figures for the half-maximal inhibitory concentration (IC50) in experiment [3] and in experiment [1] were 41 µM and 125 µM, respectively.
